Source: PubChem BioAssay (NCI)
“And” between values parts separate entries of the source, which are not always exact repeats. Identical values can stand only once.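 Interpolation was linear, between the two tested concentrations surrounding the appropriate level; five concentrations were tested over 48 hours in 96-well plates. Here, GI50 denotes the concentration required for 50% inhibition of growth. At the TGI there is no net growth.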

The compounds below were run on CAKI-1 renal (assay: DTP human tumour cell line panel, 48 h).

| Compound | TGI | GI50 |
| --- | --- | --- |
| COc1cc2ccccc2oc1=O | > 100 µM |  |
| COc1ccc2c(=O)cc(-c3ccncc3)oc2c1OC | > 100 µM |  |
| COC(=O)[C@@]12OC[C@]34[C@H]([C@@H](O)[C@@H]1O)[C@@]1(C)[C@H](O)C(=O)C=C(C)[C@@H]1C[C@H]3OC(=O)C(OC(C)=O)[C@@H]24 (stereo partly specified) | 0.394 µM | 0.107 µM |

These compounds were tested on MDA-MB-231 breast (assay: DTP human tumour cell line panel, 48 h).

| Compound | GI50 | TGI |
| --- | --- | --- |
| C[C@]12CCc3sc(NCCc4ccccc4)nc3C1=CC[C@@H]1[C@@H]2CC[C@]2(C)C(=O)CC[C@@H]12 | 3.4 µM | 21.4 µM |
| CCN(Cc1ccc(F)cc1)c1ccc(CO)c(F)c1 | 18.9 µM | > 69 µM |
| c1ccc(CN2CCC3(CC2)SSC2(CCN(Cc4ccccc4)CC2)S3)cc1 |  | > 100 µM |
| O=C(Cn1c(=O)c(-c2ccccc2)nc2ccccc21)Nc1ccc(F)cc1 | 99.7 µM | > 100 µM |
| CCOC(=O)c1c2c(n(Cc3ccc(Cl)cc3Cl)c1C)-c1nc[nH]c1C(=O)C2=O | 2.24 µM | 5.04 µM |
| COc1cccc2c1C(=O)c1c(O)c3c(c(O)c1C2=O)CC(O)(C(O)CO)CC3OC1CC(N2CCOCC2)C(O)C(C)O1 (stereo unspecified) |  | 0.243 µM |
| O=C(O)C1OC1(c1cccc(Cl)c1)c1ccccc1Cl (stereo unspecified) |  | 35.8 µM |
| CCCCC[C@H]1C/C=C2/C(=O)C=C[C@@H]2C/C=C\CCCC(=O)O[C@@H](CCCCC)C/C=C2/C(=O)C=C[C@@H]2C/C=C\CCCC(=O)O1 | 0.132 µM | 2.17 µM |
| COC1/C=C/C(C)C(C(C)C(OC)C(C)CCC(=O)C(C)C(C/C=C/N(C)C=O)OC)OC(=O)/C=C/C=C(\C)CC(OC)CC2=CC(=O)O[C@H](C2)C(C)C(OC)CC(OC)/C=C/C(C)C(OC)C1 (stereo partly specified) | 0.0114 µM | 0.0584 µM |
| Cc1cc(C(=C2C=CC(=Nc3ccccc3)C=C2)c2ccc(Nc3ccccc3)cc2)ccc1N | 0.363 µM | 1.34 µM |
| CNCCCn1c2c(c3ccc([N+](=O)[O-])cc3c1=O)C(=O)c1cc(OC)cnc1-2 | 0.265 µM | 1.72 µM |
| C#CC1(O)C(COP(=O)(O)OC(COCCCCCCCCCCCCCCCCCC)COP(=O)(O)OCC2OC(n3cc(F)c(=O)[nH]c3=O)CC2O)OC(n2ccc(N)nc2=O)C1O (stereo unspecified) |  | 26.7 µM and 31.1 µM |
| Cc1cc(Cl)ccc1Nc1nc(C(F)(F)F)ccc1C(=O)N/N=C/c1ccc(Cl)cc1 | 1.09 µM | 4.22 µM |
| COc1cc2oc3cc(=O)cc4oc(-c5ccccc5)cc(c2c2c1CCC(c1ccccc1)O2)c43 (stereo unspecified) |  | 68.1 µM |
| c1cc2n(n1)CCN2 |  | > 10000 µM |
| COc1cc(Nc2c(C#N)cnc3cc(OCCCN4CCN(C)CC4)c(OC)cc23)c(Cl)cc1Cl | 2.76 µM | 7.14 µM |
| O=CN/C=C/c1cccc(O)c1 |  | 99.2 µM |
| Nc1ccc2c(SCc3ccc([N+](=O)[O-])cc3)c3ccccc3nc2c1 |  | > 55.8 µM |
| COC1=CC(c2ccc[nH]2)=N/C1=C\c1[nH]c(C)c(C(=O)CCCCC(=O)NC(C)(C)C)c1C | 0.957 µM | 3.95 µM |
| O=c1ccn(C2CC(O)C(CO)O2)c(=O)[nH]1 (stereo unspecified) | > 5000 µM | > 5000 µM |
| O=C(N/C(=C/c1ccc(Cl)cc1Cl)c1nc2ccccc2s1)c1ccccc1 |  | 22.3 µM |
| CCOC(=O)c1cc2c(n1Cc1cccc(OC)c1)-c1oncc1CCC2 | 4.06 µM | > 100 µM |
| COc1c(O)cc2oc(-c3ccc(O)cc3)cc(=O)c2c1O |  | > 100 µM |
| O=c1cc(-c2ccccc2F)[nH]c2ccc(N3CCCC3)cc12 | > 100 µM | > 100 µM |
| c1csc(-c2cn3nc(-c4c[nH]c5ccccc45)sc3n2)c1 | 1.08 µM | 7.88 µM |
| COc1cc2ccccc2oc1=O |  | > 100 µM |
| O=C1c2cccc(NCCN=Cc3cc([N+](=O)[O-])ccc3O)c2C(=O)c2c(NCCN=Cc3cc([N+](=O)[O-])ccc3O)cccc21 | 3.12 µM | 71.7 µM |
| COc1ccc2c(=O)cc(-c3ccncc3)oc2c1OC |  | > 100 µM |
| O=C(O)c1cc2ccc3ccccc3c2oc1=O |  | > 100 µM |
| COC(=O)[C@@]12OC[C@]34[C@H]([C@@H](O)[C@@H]1O)[C@@]1(C)[C@H](O)C(=O)C=C(C)[C@@H]1C[C@H]3OC(=O)C(OC(C)=O)[C@@H]24 (stereo partly specified) | 0.0979 µM | 0.366 µM |

The compounds below were run on OVCAR-4 ovarian (assay: DTP human tumour cell line panel, 48 h).

| Compound | GI50 | TGI |
| --- | --- | --- |
| C[C@]12CCc3sc(NCCc4ccccc4)nc3C1=CC[C@@H]1[C@@H]2CC[C@]2(C)C(=O)CC[C@@H]12 | 3.93 µM | > 100 µM |
| CCN(Cc1ccc(F)cc1)c1ccc(CO)c(F)c1 | 3.93 µM | 27.6 µM |
| c1ccc(CN2CCC3(CC2)SSC2(CCN(Cc4ccccc4)CC2)S3)cc1 |  | > 100 µM |
